{"source": "paper PMC12267423", "about": "“Comparisons of pharmacokinetics of glimepiride in combination with Ojeok-san versus glimepiride alone: an open-label, one-sequence, two-treatment controlled clinical study” (Scientific Reports, 2025)", "key": {"[1]": {"settings": "cited from earlier work"}, "healthy male subjects": {"system": "healthy male subjects", "test": "Safety and tolerability (adverse events) in healthy male subjects", "type": "in vivo, human", "description": "Safety and tolerability were assessed during the study period. The occurrence of AEs was monitored, and the investigators assessed its causal relationship with the study drugs. Vital signs, 12-lead electrocardiography (ECGs), physical examinations, and laboratory tests were performed and reviewed."}, "glucose": {"system": "glucose", "parameters": "method as in PMID 33262578", "settings": "4 mg glimepiride, 75 g glucose load; cited from earlier work"}, "[2]": {"system": "serum glucose concentration", "test": "Oral glucose tolerance test (pharmacodynamics) before and after glimepiride with or without OJS", "settings": "glucose 50 g (glimepiride alone), 75 g (with OJS)", "procedure": "Oral glucose tolerance tests (OGTT) were performed before and after glimepiride administration on days 1 and 9, and days 2 and 10, respectively, to assess the PD effects (Supplementary information).\nThe PD parameters included the maximum serum glucose concentration (Gmax), 2-hour serum glucose level (PP2), and area under the glucose concentration-time curve for 4 h after glucose administration (AUG0–4 h), which was calculated using the linear trapezoidal rule. The change values of Gmax, PP2, and AUG0–4 h were calculated by subtracting the baseline serum glucose concentrations from the corresponding post-administration values at each time point, following glimepiride administration with or without OJS. The maximum of these difference values was defined as the change in Gmax, and the value at 2 h as the change in PP2. The area under the curve from 0 to 4 h was calculated using linear trapezoidal method and defined as change in AUG0 − 4 h. Additionally, the percent change (%change) was calculated as: 100×(change value / baseline value).\nThe initial protocol stipulated the administration of 75 g of glucose; however, due to a lapse in protocol adherence by the administering clinical research nurse, which involved an incorrect glucose dosage of 50 g stemming from a failure to accurately verify the medication label, a deviation occurred (a report of this protocol violation was filed with the Institutional Review Board). Consequently, the plasma glucose assessment post-glimepiride monotherapy was conducted using 50 g of glucose, whereas the evaluation of the combined effect of glimepiride and OJS during the second admission utilized 75 g of glucose, introducing variance in glucose exposure across the two evaluations."}, "[3]": {"test": "Pharmacokinetics of glimepiride and M1 in plasma, glimepiride alone versus with Ojeok-san, clinical crossover study", "settings": "for Reduction of mean Cmax with OJS compared to glimepiride monotherapy: absorption phase; for CL/F / t1/2,0–24 h / AUC(0-t) / half-life / t1/2,0–48 h: mean ± SD; for Tmax: median (min–max); for Geometric mean ratio of AUC0–24 h (%, 90% CI) / Geometric mean ratio of AUC0–48 h (%, 90% CI) / Geometric mean ratio of AUCinf (%, 90% CI) / Geometric mean ratio of Cmax (%, 90% CI): glimepiride and OJS co-administration to glimepiride alone", "procedure": "(§1) Glimepiride (4 mg) was orally administered once daily on days 1–2 during period 1. Subsequently, the 4.35 g/pack of OJS was orally administered three times a day on days 4–11 during period 2, and glimepiride (4 mg) was co-administered once a day on days 9–10 during period 2. Glimepiride (4 mg) was administered at approximately 12:00 PM on days 1 and 9 and at approximately 8:00 AM on days 2 and 10. The 4.35 g/pack of OJS was administered thrice a day at 7:00–10:00 AM, 12:00–03:00 PM, and 6:00–9:00 PM on days 4–11. However, during hospitalization, OJS was administered at approximately 7:00 AM on days 9–10, just 1 h before glimepiride administration.\n(§2) For the PK analysis of glimepiride, blood samples were collected immediately before the glimepiride administration on days 1 and 9 on the first day of each period. On days 2 and 10, blood samples were collected immediately before glimepiride administration (0 h) and 0.25, 0.5, 1, 1.5, 2, 2.5, 3, 3.5, 4, 5, 6, 8, 12, 15, 24, and 48 h after glimepiride administration.\n(§3) The analyte was separated using a YMC hydrosphere C18 (50 × 2.0 mm, 3 μm; YMC, USA) at 40 ℃. The mobile phase consists of 5 mM ammonium formate and 100% acetonitrile (20:80, v/v) with a flow rate of 180 µL/min. The compounds were detected in the positive mode using an electrospray ionization source. […] A linear response of glimepiride was shown in the range of 2 to 1000 ng/mL (r^2 ≥ 0.9970), and the lower limit of quantification was determined as 2 ng/mL.\n(§4) PK parameters were calculated using the noncompartmental method in Phoenix WinNonlin 8.3 (Certara USA Inc., Princeton, NJ, USA). […] The terminal elimination rate constant (kz) was estimated from the regression of the log-linear decrease in the plasma concentration-time profile. The terminal elimination half-life (t1/2) was calculated as the natural logarithm of 2 divided by kz. The area under the plasma concentration-time curve (AUC) from dosing to 24 h post-dosing (AUC0–24 h) and AUC0–48 h from dosing to 48 h post-dosing were calculated using the linear/log trapezoidal rule. The AUC from 0 to infinity (AUCinf) was calculated as AUC0–24 h + C24 / kz, where kz is the terminal elimination rate constant estimated from linear regression of the terminal phase of the log-linear plot of the plasma concentration-time curve. The metabolic ratio was calculated by dividing the M1 AUC0–24 h by glimepiride AUC0–24 h.\n(§5) All statistical analyses were performed using SAS 9.4 (SAS Institute Inc. Cary, NC, USA). Descriptive statistics were calculated for continuous variables."}, "[4]": {"settings": "human, in vivo, 4 mg", "procedure": "as §1, §2, §3, §4, §5"}, "[5]": {"settings": "glimepiride administered with a meal"}, "[6]": {"settings": "OGTT after glimepiride, mean ± SD"}, "[7]": {"settings": "glimepiride 4 mg qd + OJS 4.35 g tid, N = 13"}, "[8]": {"settings": "glimepiride 4 mg qd alone, N = 16"}, "[9]": {"settings": "male, human, plasma, oral, 4 mg"}}, "note": "Where two headings read alike, the source gives them in different places.", "data": [{"smiles": "Cc1ccc(-c2cc(C(F)(F)F)nn2-c2ccc(S(N)(=O)=O)cc2)cc1", "note": "[celecoxib]", "values": [{"measurement": "Decrease of AUC", "setting": "[1]; co-administration with OJS", "value": 11.5, "unit": "%"}, {"measurement": "Decrease of Cmax", "setting": "[1]; co-administration with OJS", "value": 27.5, "unit": "%"}]}, {"smiles": "CCC1=C(C)CN(C(=O)NCCc2ccc(S(=O)(=O)NC(=O)N[C@H]3CC[C@H](C)CC3)cc2)C1=O", "note": "[Glimepiride]", "values": [{"measurement": "Subjects reporting adverse events", "setting": "healthy male subjects; period 1 (glimepiride alone), 6 out of 16 subjects", "value": 37.5, "unit": "%"}, {"measurement": "Subjects reporting adverse events", "setting": "healthy male subjects; period 2 (OJS with glimepiride), 2 out of 13 subjects", "value": 15.4, "unit": "%"}, {"measurement": "Metabolites recovered in the urine", "setting": "[1]", "value": "approximately 60%"}, {"measurement": "Reduction of mean AUC", "setting": "[1]; co-administered with aspirin", "value": 34, "unit": "%"}, {"measurement": "Reduction of mean Cmax", "setting": "[1]; co-administered with aspirin", "value": 4, "unit": "%"}, {"measurement": "Time to peak plasma concentrations", "setting": "[1]; following oral administration", "value": "2 to 3", "unit": "h"}, {"measurement": "Decrease of mean AUC", "setting": "[1]; [5]", "value": 9, "unit": "%"}, {"measurement": "Decrease of mean Cmax", "setting": "[1]; [5]", "value": 8, "unit": "%"}, {"measurement": "Reduction of AUC", "setting": "[1]; with colesevelam", "value": 18, "unit": "%"}, {"measurement": "Reduction of Cmax", "setting": "[1]; with colesevelam", "value": 8, "unit": "%"}, {"measurement": "AUG0–3 h after glimepiride treatment", "setting": "glucose", "value": "291.8 ± 48.5", "unit": "mg·h/dL"}, {"measurement": "Gmax after glimepiride treatment", "setting": "glucose", "value": "134.4 ± 26.9", "unit": "mg/dL"}, {"measurement": "Reduction of Gmax", "setting": "glucose", "value": "68.9 ± 25.1", "unit": "mg/dL"}, {"measurement": "PP2, Post-", "setting": "[2]; 2-hour serum glucose after glimepiride, mean ± SD", "value": "95.75 ± 29.96", "unit": "mg/dL"}, {"measurement": "AUG0–4 h % Change", "setting": "[2]; 100×(change value / baseline value)", "value": "16.15 ± 5.07", "unit": "%"}, {"measurement": "AUG0–3h, Post-", "setting": "[2]; [6]", "value": "334.12 ± 44.24", "unit": "mg·h/dL"}, {"measurement": "Gmax, Post-", "setting": "[2]; [6]", "value": "173.88 ± 20.38", "unit": "mg/dL"}, {"measurement": "AUG0–3h % Change", "setting": "[2]", "value": "15.54 ± 5.82", "unit": "%"}, {"measurement": "Gmax % Change", "setting": "[2]", "value": "25.48 ± 8.23", "unit": "%"}, {"measurement": "PP2 % Change", "setting": "[2]", "value": "16.88 ± 14.00", "unit": "%"}, {"measurement": "AUG0–3h Change", "setting": "[2]; post- versus pre-glimepiride", "value": "61.07 ± 29.20", "unit": "mg·h/dL"}, {"measurement": "AUG0–4 h Change", "setting": "[2]; post- versus pre-glimepiride", "value": "77.01 ± 32.47", "unit": "mg·h/dL"}, {"measurement": "Gmax Change", "setting": "[2]; post- versus pre-glimepiride", "value": "45.63 ± 16.39", "unit": "mg/dL"}, {"measurement": "PP2 Change", "setting": "[2]; post- versus pre-glimepiride", "value": "17.94 ± 13.67", "unit": "mg/dL"}, {"measurement": "Reduction of mean Cmax with OJS compared to glimepiride monotherapy", "setting": "[3]", "value": "approximately 16.86%"}, {"measurement": "CL/F", "setting": "[3]; [7]", "value": "3.68 ± 1.54", "unit": "L/h"}, {"measurement": "Tmax", "setting": "[3]; glimepiride 4 mg qd alone, day 2, plasma, N = 16", "value": "4.5 (2.0–5.0) h"}, {"measurement": "CL/F", "setting": "[3]; [8]", "value": "3.28 ± 1.16", "unit": "L/h"}, {"measurement": "t1/2,0–24 h", "setting": "[3]; [8]", "value": "8.53 ± 4.69", "unit": "h"}, {"measurement": "Geometric mean ratio of AUC0–24 h (%, 90% CI)", "setting": "[3]", "value": "86.43 (77.56–96.31) %"}, {"measurement": "Geometric mean ratio of AUC0–48 h (%, 90% CI)", "setting": "[3]", "value": "86.98 (77.49–97.63) %"}, {"measurement": "Geometric mean ratio of AUCinf (%, 90% CI)", "setting": "[3]", "value": "89.15 (81.72–97.26) %"}, {"measurement": "Geometric mean ratio of Cmax (%, 90% CI)", "setting": "[3]", "value": "83.14 (69.96–98.81) %"}, {"measurement": "Geometric mean ratio of AUC0–24 h (%, 90% CI)", "setting": "[3]; listed as glimepiride", "value": "86.43 (77.56, 96.31) %"}, {"measurement": "Geometric mean ratio of Cmax (%, 90% CI)", "setting": "[3]; listed as glimepiride", "value": "83.14 (69.96, 98.81) %"}, {"measurement": "AUC(0-inf)", "setting": "[3]; [9]", "value": "1380 ± 507", "unit": "ng·h/mL"}, {"measurement": "Cmax", "setting": "[3]; [9]", "value": "251 ± 87", "unit": "ng/mL"}, {"measurement": "AUC(0-t)", "setting": "[3]; male, human, plasma, oral, 4 mg, AUC0–24 h, glimepiride 4 mg qd alone, N = 16", "value": "1280 ± 483", "unit": "ng·h/mL"}, {"measurement": "AUC(0-t)", "setting": "[3]; male, human, plasma, oral, 4 mg, AUC0–48 h, glimepiride 4 mg qd alone, N = 16", "value": "1300 ± 519", "unit": "ng·h/mL"}, {"measurement": "Tmax", "setting": "[3]; male, human, plasma, oral, 4 mg, Tmax, glimepiride 4 mg qd alone, day 2, plasma, N = 16", "value": 4.3, "unit": "h"}, {"measurement": "half-life", "setting": "[3]; male, human, plasma, oral, 4 mg, t1/2,0–24 h, glimepiride 4 mg qd alone, N = 16", "value": 8.5, "unit": "h"}, {"measurement": "half-life", "setting": "[3]; male, human, plasma, oral, 4 mg, t1/2,0–48 h, glimepiride 4 mg qd alone, N = 16", "value": "8.73 ± 4.78", "unit": "h"}, {"measurement": "AUC(0-t)", "setting": "[3]; male, human, plasma, oral, AUC0–24 h, glimepiride 4 mg qd + OJS 4.35 g tid, N = 13", "value": "1130 ± 406", "unit": "ng·h/mL"}, {"measurement": "AUC(0-t)", "setting": "[3]; male, human, plasma, oral, AUC0–48 h, glimepiride 4 mg qd + OJS 4.35 g tid, N = 13", "value": "1160 ± 468", "unit": "ng·h/mL"}, {"measurement": "Tmax", "setting": "[3]; male, human, plasma, oral, Tmax, glimepiride 4 mg qd + OJS 4.35 g tid, day 10, plasma, N = 13", "value": 5, "unit": "h"}, {"measurement": "half-life", "setting": "[3]; male, human, plasma, oral, t1/2,0–24 h, glimepiride 4 mg qd + OJS 4.35 g tid, N = 13", "value": "10.2 ± 4.84", "unit": "h"}, {"measurement": "half-life", "setting": "[3]; male, human, plasma, oral, t1/2,0–48 h, glimepiride 4 mg qd + OJS 4.35 g tid, N = 13", "value": "9.33 ± 3.02", "unit": "h"}, {"measurement": "Metabolic ratio (M1 AUC0–24 h / glimepiride AUC0–24 h), co-administration versus glimepiride alone", "setting": "[3]; p = 0.1209", "value": "not significantly different"}]}, {"smiles": "CCC1=C(C)CN(C(=O)NCCc2ccc(S(=O)(=O)NC(=O)NC3CCC(CO)CC3)cc2)C1=O", "note": "(stereo not drawn) [M1, hydroxy glimepiride]", "values": [{"measurement": "AUC0–24 h", "setting": "[4]", "value": "237.85 ± 61.69", "unit": "ng·h/mL"}, {"measurement": "AUC0–48 h", "setting": "[4]", "value": "243.05 ± 70.10", "unit": "ng·h/mL"}, {"measurement": "AUCinf", "setting": "[4]", "value": "258.17 ± 67.99", "unit": "ng·h/mL"}, {"measurement": "Cmax", "setting": "[4]", "value": "32.61 ± 8.08", "unit": "ng/mL"}, {"measurement": "Tmax", "setting": "[4]", "value": "5.0 (3.0–6.0) h"}, {"measurement": "Reduction of mean Cmax with OJS compared to glimepiride monotherapy", "setting": "[3]", "value": "~14.67", "unit": "%"}, {"measurement": "CL/F", "setting": "[3]; [7]", "value": "17.13 ± 4.89", "unit": "L/h"}, {"measurement": "t1/2,0–24 h", "setting": "[3]; [7]", "value": "8.04 ± 2.95", "unit": "h"}, {"measurement": "t1/2,0–48 h", "setting": "[3]; [7]", "value": "8.02 ± 2.80", "unit": "h"}, {"measurement": "CL/F", "setting": "[3]; [8]", "value": "16.40 ± 4.00", "unit": "L/h"}, {"measurement": "t1/2,0–24 h", "setting": "[3]; [8]", "value": "6.73 ± 1.35", "unit": "h"}, {"measurement": "t1/2,0–48 h", "setting": "[3]; [8]", "value": "7.08 ± 1.97", "unit": "h"}, {"measurement": "Geometric mean ratio of AUC0–24 h (%, 90% CI)", "setting": "[3]", "value": "91.77 (85.53–98.46) %"}, {"measurement": "Geometric mean ratio of AUC0–48 h (%, 90% CI)", "setting": "[3]", "value": "92.48 (85.29–100.26) %"}, {"measurement": "Geometric mean ratio of AUCinf (%, 90% CI)", "setting": "[3]", "value": "95.05 (89.10–101.40) %"}, {"measurement": "Geometric mean ratio of Cmax (%, 90% CI)", "setting": "[3]", "value": "85.33 (77.77–93.62) %"}]}]}
